Experimental data reported in patent publication US12559492B2, “BRAF degraders” (C4 Therapeutics, Inc., priority 2020, dated 2026).

Biological target: BRAF^V600E protein (Homo sapiens, UniProt P15056, V600E)
Experiment: HiBiT cellular BRAF V600E degradation assay
Type: cell-based
Settings: 24 h incubation; for DC50: A375.10 cells (HiBiT tag knocked in at N-terminal of BRAF V600E), concentration at which 50% of total cellular BRAF V600E is degraded; for Emax: A375.10 cells, Emax = amount of residual protein remaining in the cell after compound treatment, read-out: HiBit 24 h Emax
From the text: DMEM no-phenol red medium supplemented with L-glutamine was purchased from (Corning). Fetal bovine serum (FBS) was purchased from Gibco (Grand Island, NY, USA). Nano-Glo® HiBiT Lytic Assay Buffer & Reagents were purchased from Promega (Madison, WI, USA). […] Cell culture flasks and 384-well black flat-bottom polystyrene TC-treated microplates were acquired from Corning (Corning, NY, USA).
HiBiT Cellular BRAFv^600E Degradation Assay
Prior to the assay, the A375.10 cell line is maintained in DMEM no-phenol red medium supplemented with 10% fetal bovine serum (FBS). […] Briefly, test compounds were added to the 384-well plate from a top concentration of 10 μM with 11 half log dilutions of compound, plated in duplicate. Then, 30 uL of a suspension of A375.10 cell lines was dispensed into columns 1-24 of the 384-well plates at a cell density of 7500 cells per well. The plates were kept at 37° C. with 5% CO2 for the duration of the assay (6 or 24 hr). After the desired incubation time with compound, 30 uL of Nano-Glo® HiBiT Lytic Buffer containing LgBiT protein (diluted 1:100) and luminescence substrate (diluted 1:50) were added to the cells in columns 1-23 of the assay plate. The plate was the incubated for 30 min on the bench at room temperature. Finally, HiBiT luminescence signal was acquired on EnVision™ Multilabel Reader (PerkinElmer, Santa Clara, CA, USA).
Quantification of luminescence responses measured in the presence of compound were normalized to a high signal/no degradation control (untreated cells+lytic detection reagent) and a low signal/full degradation control (untreated cells, no lytic detection reagent). Data were analyzed with a 4-parameter logistic fit to generate sigmoidal dose-response curves. […] The Emax, or maximum effect of each compound, represents the amount of residual protein remaining in the cell following compound treatment.

Sequence of BRAF^V600E protein (P15056 whole entry V600E): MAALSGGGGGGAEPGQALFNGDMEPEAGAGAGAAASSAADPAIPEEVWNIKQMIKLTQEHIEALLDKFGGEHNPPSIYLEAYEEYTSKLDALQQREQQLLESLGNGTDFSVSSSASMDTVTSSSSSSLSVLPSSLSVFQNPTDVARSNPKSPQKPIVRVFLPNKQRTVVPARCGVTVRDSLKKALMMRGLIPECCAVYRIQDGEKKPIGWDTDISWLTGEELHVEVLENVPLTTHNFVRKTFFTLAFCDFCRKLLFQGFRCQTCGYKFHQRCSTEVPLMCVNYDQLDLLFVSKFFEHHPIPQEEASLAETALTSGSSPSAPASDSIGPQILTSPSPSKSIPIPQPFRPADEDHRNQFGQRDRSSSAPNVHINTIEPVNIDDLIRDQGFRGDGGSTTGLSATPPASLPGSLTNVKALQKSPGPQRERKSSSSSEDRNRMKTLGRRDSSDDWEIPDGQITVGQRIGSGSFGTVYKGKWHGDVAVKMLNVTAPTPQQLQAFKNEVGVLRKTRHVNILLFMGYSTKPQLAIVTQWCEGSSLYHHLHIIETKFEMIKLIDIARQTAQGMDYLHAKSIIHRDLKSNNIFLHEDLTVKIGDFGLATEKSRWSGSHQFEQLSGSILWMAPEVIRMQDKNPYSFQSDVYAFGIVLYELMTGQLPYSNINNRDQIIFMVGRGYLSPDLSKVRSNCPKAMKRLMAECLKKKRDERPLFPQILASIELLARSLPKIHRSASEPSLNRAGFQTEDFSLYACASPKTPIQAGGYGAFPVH

Row | SMILES | DC50 | Emax
1 | CCN(C)S(=O)(=O)Nc1ccc(F)c(C(=O)c2c[nH]c3ncc(-c4cnc(N5CCN(C(=O)CN6CCC(Nc7ccc8c(C9CCC(=O)NC9=O)nn(C)c8c7)CC6)CC5)nc4)cc23)c1F (stereo not drawn) [Example 28, 3-(2,6-dioxo-3-piperidyl)-6-[[1-[2-[4-[5-[3-[3-[[ethyl(methyl)sulfamoyl]amino]-2,6-difluoro-benzoyl]-1H-pyrrolo[2,3-b]pyridin-5-yl]pyrimidin-2-yl]piperazin-1-yl]-2-oxo-ethyl]-4-piperidyl]amino]-1-methyl-indazole] | 5.81 nM | 12%
2 | CCN(C)S(=O)(=O)Nc1ccc(F)c(C(=O)c2c[nH]c3ncc(-c4cnc(N5CCN(C(=O)CN6CCC(c7ccc(NC8CCC(=O)NC8=O)cc7)C(F)(F)C6)CC5)nc4)cc23)c1F (stereo not drawn) [Example 30, 5-[2-[4-[2-[4-[4-[(2,6-dioxo-3-piperidyl)amino]phenyl]-3,3-difluoro-1-piperidyl]acetyl]piperazin-1-yl]pyrimidin-5-yl]-3-[3-[[ethyl(methyl)sulfamoyl]amino]-2,6-difluoro-benzoyl]-1H-pyrrolo[2,3-b]pyridine] | 4.27 nM | 7.84%
3 | CCN(C)S(=O)(=O)Nc1ccc(F)c(C(=O)c2c[nH]c3ncc(-c4cnc(N5CCN(C(=O)CC6CCN(c7ccc(NC8CCC(=O)NC8=O)cc7)CC6)CC5)nc4)cc23)c1F (stereo not drawn) [Example 31, 5-[2-[4-[2-[1-[4-[(2,6-dioxo-3-piperidyl)amino]phenyl]-4-piperidyl]acetyl]piperazin-1-yl]pyrimidin-5-yl]-3-[3-[[ethyl(methyl)sulfamoyl]amino]-2,6-difluoro-benzoyl]-1H-pyrrolo[2,3-b]pyridine] | 30 nM | 21.2%
4 | CCN(C)S(=O)(=O)Nc1ccc(F)c(C(=O)c2c[nH]c3ncc(-c4cnc(N5CCN(C(=O)CN6CCC(c7ccc(CN8CCC(=O)NC8=O)cc7)CC6)CC5)nc4)cc23)c1F [Example 32, 5-[2-[4-[2-[4-[4-[(2,4-dioxohexahydropyrimidin-1-yl)methyl]phenyl]-1-piperidyl]acetyl]piperazin-1-yl]pyrimidin-5-yl]-3-[3-[[ethyl(methyl)sulfamoyl]amino]-2,6-difluoro-benzoyl]-1H-pyrrolo[2,3-b]pyridine] | 35 nM | 10.6%
5 | CCN(C)S(=O)(=O)Nc1ccc(F)c(C(=O)c2c[nH]c3ncc(-c4cnc(N5CCN(C(=O)CN6CCC(c7ccc8c(N9CCC(=O)NC9=O)nn(C)c8c7)CC6)CC5)nc4)cc23)c1F [Example 34, 3-(2,4-dioxohexahydropyrimidin-1-yl)-6-[1-[2-[4-[5-[3-[3-[[ethyl(methyl)sulfamoyl]amino]-2,6-difluoro-benzoyl]-1H-pyrrolo[2,3-b]pyridin-5-yl]pyrimidin-2-yl]piperazin-1-yl]-2-oxo-ethyl]-4-piperidyl]-1-methyl-indazole] | 2.52 nM | 8.14%
6 | CCN(C)S(=O)(=O)Nc1ccc(F)c(C(=O)c2c[nH]c3ncc(-c4cnc(N5CCN(C(=O)CN6CCC(N7CCN(C8CCC(=O)NC8=O)C(=O)C7)CC6)CC5)nc4)cc23)c1F (stereo not drawn) [Example 37, 5-[2-[4-[2-[4-[4-(2,6-dioxo-3-piperidyl)-3-oxo-piperazin-1-yl]-1-piperidyl]acetyl]piperazin-1-yl]pyrimidin-5-yl]-3-[3-[[ethyl(methyl)sulfamoyl]amino]-2,6-difluoro-benzoyl]-1H-pyrrolo[2,3-b]pyridine] | 17.2 nM | 9.14%
7 | CCN(C)S(=O)(=O)Nc1ccc(F)c(C(=O)c2c[nH]c3ncc(-c4cnc(N5CCN(C(=O)CC6(O)CCN(c7ccc(NC8CCC(=O)NC8=O)cc7)CC6)CC5)nc4)cc23)c1F (stereo not drawn) [Example 38, 5-[2-[4-[2-[1-[4-[(2,6-dioxo-3-piperidyl)amino]phenyl]-4-hydroxy-4-piperidyl]acetyl]piperazin-1-yl]pyrimidin-5-yl]-3-[3-[[ethyl(methyl)sulfamoyl]amino]-2,6-difluoro-benzoyl]-1H-pyrrolo[2,3-b]pyridine] | 4.44 nM | 13.4%
8 | CCN(C)S(=O)(=O)Nc1ccc(F)c(C(=O)c2c[nH]c3ncc(-c4cnc(N5CCN(C(=O)CN6CCC(c7c(F)cc(OC8CCC(=O)NC8=O)cc7F)CC6)CC5)nc4)cc23)c1F (stereo not drawn) [Example 41, 5-[2-[4-[2-[4-[4-[(2,6-dioxo-3-piperidyl)oxy]-2,6-difluoro-phenyl]-1-piperidyl]acetyl]piperazin-1-yl]pyrimidin-5-yl]-3-[3-[[ethyl(methyl)sulfamoyl]amino]-2,6-difluoro-benzoyl]-1H-pyrrolo[2,3-b]pyridine] | 24.5 nM | 9.48%

Other lines, results leading:

Row | DC50 | Emax | SMILES
9 | 4.55 nM | 7% | CCN(C)S(=O)(=O)Nc1ccc(F)c(C(=O)c2c[nH]c3ncc(-c4cnc(N5CCN(C(=O)CN6CCC(c7ccc(N[C@@H]8CCC(=O)NC8=O)cc7)CC6)CC5)nc4)cc23)c1F [Example 26, 5-[2-[4-[2-[4-[4-[[(3R)-2,6-dioxo-3-piperidyl]amino]phenyl]-1-piperidyl]acetyl]piperazin-1-yl]pyrimidin-5-yl]-3-[3-[[ethyl(methyl)sulfamoyl]amino]-2,6-difluoro-benzoyl]-1H-pyrrolo[2,3-b]pyridine]
10 | 2.09 nM | 10.8% | CCN(C)S(=O)(=O)Nc1ccc(F)c(C(=O)c2c[nH]c3ncc(-c4cnc(N5CCN(C(=O)CN6CCC(c7ccc8c(C9CCC(=O)NC9=O)nn(C)c8c7)CC6)CC5)nc4)cc23)c1F (stereo not drawn) [Example 27, 3-(2,6-dioxo-3-piperidyl)-6-[1-[2-[4-[5-[3-[3-[[ethyl(methyl)sulfamoyl]amino]-2,6-difluoro-benzoyl]-1H-pyrrolo[2,3-b]pyridin-5-yl]pyrimidin-2-yl]piperazin-1-yl]-2-oxo-ethyl]-4-piperidyl]-1-methyl-indazole]
11 | 2.76 nM | 7.67% | CCN(C)S(=O)(=O)Nc1ccc(F)c(C(=O)c2c[nH]c3ncc(-c4cnc(N5CCN(C(=O)CN6CCC(c7ccc(NC8CCC(=O)NC8=O)c(F)c7)CC6)CC5)nc4)cc23)c1F (stereo not drawn) [Example 29, 5-[2-[4-[2-[4-[4-[(2,6-dioxo-3-piperidyl)amino]-3-fluoro-phenyl]-1-piperidyl]acetyl]piperazin-1-yl]pyrimidin-5-yl]-3-[3-[[ethyl(methyl)sulfamoyl]amino]-2,6-difluoro-benzoyl]-1H-pyrrolo[2,3-b]pyridine]
12 | 2.51 nM | 19.2% | CCN(C)S(=O)(=O)Nc1ccc(F)c(C(=O)c2c[nH]c3ncc(-c4cnc(N5CCN(C(=O)CN6CCC(c7ccc8c(c7)n(C)c(=O)n8C7CCC(=O)NC7=O)CC6)CC5)nc4)cc23)c1F (stereo not drawn) [Example 33, 1-(2,6-dioxo-3-piperidyl)-5-[1-[2-[4-[5-[3-[3-[[ethyl(methyl)sulfamoyl]amino]-2,6-difluoro-benzoyl]-1H-pyrrolo[2,3-b]pyridin-5-yl]pyrimidin-2-yl]piperazin-1-yl]-2-oxo-ethyl]-4-piperidyl]-3-methyl-2-oxo-benzimidazole]
13 | 10.2 nM | 8.74% | CCN(C)S(=O)(=O)Nc1ccc(F)c(C(=O)c2c[nH]c3ncc(-c4cnc(N5CCN(C(=O)CN6CCC(c7ccc(NC8CCC(=O)NC8=O)cc7C(F)F)CC6)CC5)nc4)cc23)c1F (stereo not drawn) [Example 39, 5-[2-[4-[2-[4-[2-(difluoromethyl)-4-[(2,6-dioxo-3-piperidyl)amino]phenyl]-1-piperidyl]acetyl]piperazin-1-yl]pyrimidin-5-yl]-3-[3-[[ethyl(methyl)sulfamoyl]amino]-2,6-difluoro-benzoyl]-1H-pyrrolo[2,3-b]pyridine]
14 | 11.7 nM | 8.42% | CCN(C)S(=O)(=O)Nc1ccc(F)c(C(=O)c2c[nH]c3ncc(-c4cnc(N5CCN(C(=O)CN6CCC(c7ccc(NC8CCC(=O)NC8=O)cc7C#N)CC6)CC5)nc4)cc23)c1F (stereo not drawn) [Example 40, 5-[2-[4-[2-[4-[2-cyano-4-[(2,6-dioxo-3-piperidyl)amino]phenyl]-1-piperidyl]acetyl]piperazin-1-yl]pyrimidin-5-yl]-3-[3-[[ethyl(methyl)sulfamoyl]amino]-2,6-difluoro-benzoyl]-1H-pyrrolo[2,3-b]pyridine]
15 | 3.41 nM | 11.5% | CCN(C)S(=O)(=O)Nc1ccc(F)c(C(=O)c2c[nH]c3ncc(-c4cnc(N5CCN(C(=O)CC6CCN(c7ccc(NC8CCC(=O)NC8=O)cc7F)CC6)CC5)nc4)cc23)c1F (stereo not drawn) [Example 42, 5-[2-[4-[2-[1-[4-[(2,6-dioxo-3-piperidyl)amino]-2-fluoro-phenyl]-4-piperidyl]acetyl]piperazin-1-yl]pyrimidin-5-yl]-3-[3-[[ethyl(methyl)sulfamoyl]amino]-2,6-difluoro-benzoyl]-1H-pyrrolo[2,3-b]pyridine]
